This is an account of results in patent US20260224582A1, “Heterobicyclic amides as inhibitors of CD38” (Cerevance, Inc., priority 2022, published 2026).

Where two headings read alike, the source gives them in different places.

The nature of data set [1]: Tissue binding assay (equilibrium dialysis), brain homogenate. Format: in vitro ADME. The note with it: mouse brain homogenate, dialysis 4 hours at 37° C., pH 7.4. On the procedure: (§1) Buffer preparation. A basic solution was prepared by dissolving 14.2 g/L Na2HPO4 and 8.77 g/L NaCl in deionized H2O. An acidic solution was prepared by dissolving 15.6 g/L NaH2PO4·2H2O and 8.77 g/L NaCl in deionized H2O. Using the acidic solution, the basic solution was then titrated to pH 7.4±0.1 and stored at 4° C. for up to 1 month. The stop solution was 100% CH3CN containing 200 ng/ml tolbutamide, 200 ng/ml labetalol and 50 ng/ml metformin.
(§2) Test method. Dialysis membrane strips were soaked in ultra-pure water at room temperature for ~1 hour. Each membrane strip containing 2 membranes was separated and soaked in 20:80 EtOH/H2O (v/v) for ~20 min, after which they were ready for use or were stored in the solution at 2-8° C. for up to 1 month. Prior to the experiment, the membrane was rinsed and soaked for 20 min in ultra-pure water. On the day of experiment, brain homogenate was thawed in a water bath at room temperature and incubated at 37° C. for 10 min before use. Test and control compounds were dissolved in DMSO to achieve 10 mM stock solutions. DMSO working solutions were prepared at 400 μM by diluting 10 μL of stock solution. To prepare the time zero (t=0) samples to be used for recovery determination, 50 μL aliquots of loading matrix were transferred in triplicate to the sample collection plate. The samples were immediately matched with opposite blank buffer to obtain a final volume of 100 μL of 1:1 matrix/dialysis buffer (v/v) in each well. 500 μL of stop solution were added to these t=0 samples. They were then stored at 2-8° C. pending further processes along with other post-dialysis samples. To load the dialysis device, an aliquot of 150 μL of the loading matrix was transferred to the donor side of each dialysis well in triplicate, and 150 μL of the dialysis buffer was loaded to the receiver side of the well. The dialysis plate was placed in a humidified incubator at 37° C. with 5% CO2 on a shaking platform that rotated slowly (about 100 rpm) for 4 hours. At the end of the dialysis, aliquots of 50 μL of samples were taken from both the buffer side and the matrix side of the dialysis device. These samples were transferred into new 96-well plates. Each sample was mixed with an equal volume of opposite blank matrix (buffer or matrix) to reach a final volume of 100 μL of 1:1 matrix/dialysis buffer (v/v) in each well. All samples were further processed by adding 500 μL of stop solution containing internal standards. The mixture was vortexed and centrifuged at 4000 rpm for about 20 min. An aliquot of 100 μL of supernatant of all the samples was then removed for LC-MS/MS analysis. The single blank samples were prepared by transferring 50 μL of blank matrix to a 96-well plate and adding 50 μL of blank PBS buffer to each well. Then the matrix-matched samples were further processed by adding 500 μL of stop solution containing internal standards, following the same sample processing method as the dialysis samples.
(§3) Data analysis. The % undiluted unbound, % undiluted bound and % recovery were calculated using the following equations: […]
(§4) where F is the analyte concentration or peak area ratio of analyte/internal standard on the buffer (receiver) side of the membrane; T is the analyte concentration or peak area ratio of analyte/internal standard on the matrix (donor) side of the membrane; To is the analyte concentration or the peak area ratio of analyte/internal standard in the loading matrix sample at time zero; and D is the dilution factor determined as 4 in this assay.
(In general: Equilibrium dialysis compares concentrations on both sides of a semipermeable membrane.)

Data set [2] can be described thus: Tissue binding assay (equilibrium dialysis), plasma. The note with it: mouse plasma, dialysis 4 hours at 37° C., pH 7.4. Format: in vitro ADME. On the procedure: [Worded in the source for another target; this target is reported under the same test.] as §1, §2, §3, §4
Data set [3] in a line: PK brain permeability after single oral gavage. Conditions: mice, 10 mg/kg oral, 2 hours post dose; for concentration at 2 h / Kp at 2 h: male, C57BL/6, mouse; for concentration at 2 h: po, 10 mg/kg; for Kp at 2 h: read-out: Kpu, u (unbound partitioning coefficient, Cb,u to Cp,u); for brain permeability (in words): statement on Table 3. Format: in vivo, C57BL/6 mice. On the procedure: The distribution of compounds into the brain in vivo was determined in C57BL/6 mice following single oral (po) gavage administration.
Test compounds were formulated at 1 mg/mL in 0.5% HPMC E4M, 0.2% Tween 80 in water to achieve solutions or homogenous suspensions suitable for po administration. Formulations were administered to 3 male C57BL/6 mice at a volume of 10 mL/kg resulting in a dose level of 10 mg/kg. Blood samples were collected at 1 and 2 hours post dose into tubes containing K2EDTA as anticoagulant, processed to plasma and stored at −60° C. or lower until LC-MS/MS analysis. Brains were harvested 2 hours post dose, rinsed with saline, dried, weighed and homogenised under ice cold conditions. Brain homogenates were stored at −60° C. or lower until LC-MS/MS analysis.
Dose formulation concentrations were verified using a LC-UV or LC-MS/MS method. Test compound concentrations in plasma and brain homogenate were quantitatively determined using LC-MS/MS methods developed in individual matrices against calibration curves with QC samples included and acceptance criteria as per CRO SOPs. Concentrations in brain homogenate were corrected for the dilution factor used to prepare the homogenate to give concentrations in whole brain tissue.
Plasma and brain concentration versus time data were reported and plotted in excel. The brain to plasma ratio at 2 hours post dose was calculated for each animal using the following equation:
Brain: plasma=brain concentration (ng/g) at 2 h/plasma concentration (ng/ml) at 2 h As only unbound test compound is available to exert an effect on the target, unbound plasma (Cp,u) and unbound brain (Cb,u) concentrations were calculated by correcting the total concentrations for the unbound fraction in plasma (fu,p) or brain (fu,b) determined from in vitro plasma protein or brain tissue binding assays using the following equations: […]
The unbound partitioning coefficient (Kpu,u) was then calculated based on the ratio of Cb,u to Cp,u using the following equation: […]
In these studies, mice were orally administrated a 10 mg/kg dose and sacrificed 2 hours post dose and tissue samples (brain homogenate and plasma) were analyzed subsequently as described above.

Where [4] appears, read: brain, read-out: total brain conc.
Where [5] appears, read: brain, total corrected for unbound fraction in brain, read-out: free brain conc.
Where [6] appears, read: plasma, read-out: total plasma conc.
The mark [7] stands for this setting: plasma, total corrected for unbound fraction in plasma, read-out: free plasma conc.

A word on the fraction unbound: it is the share of the substance not bound to proteins or other matrix. Read a high fraction unbound as weak binding. Turning to `O=C(N[C@H]1CC[C@H](NCC(F)(F)F)CC1)c1cn2ccnc2c(-n2ccnc2)n1` [Example 19, 8-(1H-imidazol-1-yl)-N-((1r,4r)-4-((2,2,2-trifluoroethyl)amino)cyclohexyl) imidazo[1,2-a]pyrazine-6-carboxamide], the free fraction (fraction unbound) at 4 h turned out to be 0.25 in data set [1] and 0.19 in data set [2]. Besides, the concentration at 2 h was 864 nM in data set [3] (setting [4]), 218 nM in data set [3] (setting [5]), 5010 nM in data set [3] (setting [6]) and 954 nM in data set [3] (setting [7]). Besides, in data set [3] (brain), the Kp at 2 h worked out at 0.22. Also, the “brain permeability (in words)” value in data set [3] is “good brain permeability”.

On to `O=C(N[C@H]1CC[C@H](N2CC[C@@H](F)C2)CC1)c1nc(-n2ccnc2)nn2cccc12` [Example 14, N-((1R,4r)-4-((R)-3-fluoropyrrolidin-1-yl)cyclohexyl)-2-(1H-imidazol-1-yl)pyrrolo[2,1-f][1,2,4]triazine-4-carboxamide], for which the fraction unbound at 4 h in data set [1] was 0.056; in data set [2] it was 0.24. The concentration at 2 h is 3320 nM in data set [3] (setting [4]), 181 nM in data set [3] (setting [5]), 3930 nM in data set [3] (setting [6]) and 959 nM in data set [3] (setting [7]). The Kp at 2 h in data set [3] (brain) was found to be 0.19. The “brain permeability (in words)” value in data set [3] is recorded as “good brain permeability”.

For `O=C(N[C@H]1CC[C@H](NCC(F)(F)F)CC1)c1cn2ncnc2c(-n2ccnc2)n1` [Example 20, 8-(1H-imidazol-1-yl)-N-((1r,4r)-4-((2,2,2-trifluoroethyl)amino)cyclohexyl)-[1,2,4]triazolo[1,5-a]pyrazine-6-carboxamide], the unbound share (fraction unbound) at 4 h in data set [1] is 0.34; in data set [2] it was 0.14. The concentration at 2 h in data set [3] (setting [4]) came out at 1420 nM; in data set [3] (setting [5]), 481 nM; in data set [3] (setting [6]) it was 17900 nM; in data set [3] (setting [7]), 2630 nM. Also, in data set [3] (brain), the Kp at 2 h is 0.18. In addition, the “brain permeability (in words)” value in data set [3] was “good brain permeability”.

Turning to `O=C(N[C@H]1CC[C@H](N2CCC(F)(F)C2)CC1)c1nc(-n2ccnc2)nn2cccc12` [Example 12, N-((1r,4r)-4-(3,3-difluoropyrrolidin-1-yl)cyclohexyl)-2-(1H-imidazol-1-yl)pyrrolo[2,1-f][1,2,4]triazine-4-carboxamide], the fraction unbound at 4 h worked out at 0.068 in data set [1] and 0.062 in data set [2]. The concentration at 2 h came to 8370 nM in data set [3] (setting [4]), 575 nM in data set [3] (setting [5]), 12600 nM in data set [3] (setting [6]) and 788 nM in data set [3] (setting [7]). Further, the Kp at 2 h in data set [3] (brain) turned out to be 0.79. Further, the “brain permeability (in words)” value in data set [3] was “good brain permeability”.

In the case of `O=C(N[C@H]1CC[C@H](N2CCC(F)(F)C2)CC1)c1cn2ncnc2c(-n2ccnc2)n1` [Example 48, N-((1r,4r)-4-(3,3-difluoropyrrolidin-1-yl)cyclohexyl)-8-(1H-imidazol-1-yl)-[1,2,4]triazolo[1,5-a]pyrazine-6-carboxamide], the free fraction (fraction unbound) at 4 h in data set [1] came out at 0.15; in data set [2], 0.24. For the same compound, the concentration at 2 h in data set [3] (setting [4]) stood at 2570 nM; in data set [3] (setting [5]) it was 403 nM; in data set [3] (setting [6]), 8000 nM; in data set [3] (setting [7]) it was 1980 nM. The Kp at 2 h in data set [3] (brain) stood at 0.2. In addition, in data set [3], the “brain permeability (in words)” value is “good brain permeability”.

Consider `O=C(N[C@H]1CC[C@H](N2CC(F)(F)C2)CC1)c1cn2ncnc2c(-n2ccnc2)n1` [Example 45, N-((1r,4r)-4-(3,3-difluoroazetidin-1-yl)cyclohexyl)-8-(1H-imidazol-1-yl)-[1,2,4]triazolo[1,5-a]pyrazine-6-carboxamide], for which the unbound share (fraction unbound) at 4 h in data set [1] was found to be 0.15; in data set [2] it was 0.2. Moreover, the concentration at 2 h in data set [3] (setting [4]) worked out at 2160 nM; in data set [3] (setting [5]) it was 555 nM; in data set [3] (setting [6]), 9340 nM; in data set [3] (setting [7]), 3490 nM. In addition, the Kp at 2 h in data set [3] (brain) came out at 0.16. Also, the “brain permeability (in words)” value in data set [3] is given as “good brain permeability”.
